One assay addresses T1, EGFR mutant T790M (Homo sapiens, UniProt P00533, T790M).
T1 construct: truncated human JAK3, EGFR mutants such as del E746-A750; purchased Carna Biosciences
The experiment in a line: Kinase inhibition assay, EGFR mutant T790M.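 Also: truncated human EGFR mutant enzyme preincubated two hours with compound, then ATP plus ULight-PolyGT peptide for one hour, Europium-labeled antibody LANCE detection, IC50.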 The note with it: biochemical potency.

Another assay concerns the target T2, SYK (Homo sapiens, UniProt P43405).
T2 construct: Purified human, full-length SYK, KDR; purchased Carna Biosciences
The experiment in a line: Kinase inhibition assay, SYK.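 Also: purified full-length human SYK pre-incubated 30 min with compound, then ULight-TK peptide phosphorylation for 1 h, detected with Europium-labeled antibody in Lance buffer.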 The class given is biochemical. The note with it: biochemical potency.

The target in assay [1] is T3, EGFR mutant Del19 (E746-A750) (Homo sapiens, UniProt P00533, DEL746-750).
T3 construct: truncated human JAK3, EGFR mutants such as del E746-A750; purchased Carna Biosciences
Description: Kinase inhibition assay, EGFR del E746-A750.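 Also: truncated human EGFR mutant kinase, two-hour preincubation with compound, then one-hour reaction with ATP and ULight-PolyGT peptide, LANCE Europium-antibody phosphorylation readout, IC50.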 It counts as biochemical. As to conditions: read-out: EGFR mutants Del19 (E746-A750).

A further assay deals with T4, EGFR mutant L858R/T790M (Homo sapiens, UniProt P00533, L858R/T790M).
T4 construct: truncated human JAK3, EGFR mutants such as del E746-A750; purchased Carna Biosciences
The experiment in a line: Kinase inhibition assay, EGFR L858R/T790M.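 Also: truncated human enzyme preincubated two hours with compound, then one hour with one millimolar ATP and ULight-PolyGT peptide, Europium-labeled antibody detection, IC50.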 The class given is biochemical. As to conditions: read-out: EGFR mutants L858R/T790M.

The target of a further assay is T5, EGFR mutant L858R (Homo sapiens, UniProt P00533, L858R).
T5 construct: truncated human JAK3, EGFR mutants such as del E746-A750; purchased Carna Biosciences
The experiment in a line: Kinase inhibition assay, EGFR L858R.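 Also: truncated human EGFR L858R kinase with compound preincubation, ULight-PolyGT peptide phosphorylation read by Europium-antibody Lance detection, IC50.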 The note with it: read-out: EGFR mutants L858R. It counts as biochemical.

The target in a further assay is T6, EGFR mutant Del19/T790M (Homo sapiens, UniProt P00533, DEL746-750/T790M).
T6 construct: truncated human JAK3, EGFR mutants such as del E746-A750; purchased Carna Biosciences
The experiment in a line: Kinase inhibition assay, EGFR del E746-A750/T790M. It counts as biochemical. As to conditions: read-out: EGFR mutants Del19/T790M.

Like-named read-outs stand apart in the source and are kept apart here. Bounds are passed on as bounds.

For `C=CC(=O)Nc1cc(Nc2nccc(-n3cc(CN4CCC4)c(C(C)(C)C)n3)n2)c(OC)cc1N(C)CCOC` [Compound 101, N-(5-(4-(4-(azetidin-1-ylmethyl)-3-tert-butyl-1H-pyrazol-1-yl)pyrimidin-2-ylamino)-4-methoxy-2-((2-methoxyethyl)(methyl)amino)phenyl)acrylamide], the IC50 is less than 20 nM against EGFR mutant T790M; greater than 1000 nM against SYK; less than 20 nM in assay [1]; less than 20 nM on EGFR mutant L858R/T790M; less than 20 nM on EGFR mutant L858R.
Consider `C=CC(=O)Nc1cc(Nc2nccc(-n3cc(CO)c(-c4ccccc4)n3)n2)c(OC)cc1N1CCOCC1` [Compound 91, N-(5-(4-(4-(hydroxymethyl)-3-phenyl-1H-pyrazol-1-yl)pyrimidin-2-ylamino)-4-methoxy-2-morpholinophenyl)acrylamide], for which the IC50 on EGFR mutant T790M is 201 to 1000 nM; in assay [1], less than 20 nM; at EGFR mutant Del19/T790M it was less than 20 nM; on EGFR mutant L858R/T790M it was 20 to 200 nM; on EGFR mutant L858R it was 20 to 200 nM.
On to `C=CC(=O)Nc1cc(Nc2ncc(C)c(-n3cc(CN4CCC4)c(C(C)C)n3)n2)c(OC)cc1N1CCOCC1` [Compound 125, N-(5-(4-(4-(azetidin-1-ylmethyl)-3-isopropyl-1H-pyrazol-1-yl)-5-methylpyrimidin-2-ylamino)-4-methoxy-2-morpholinophenyl)acrylamide], for which the IC50 (on EGFR mutant T790M; in assay [1]; at EGFR mutant Del19/T790M; on EGFR mutant L858R/T790M; on EGFR mutant L858R) was less than 20 nM throughout.
Take `C=CC(=O)Nc1cc(Nc2nccc(-n3cc(CN(C)C)c(-c4cccnc4)n3)n2)c(OC)cc1N1CCOCC1` [Compound 128, N-(5-(4-(4-((dimethylamino)methyl)-3-(pyridin-3-yl)-1H-pyrazol-1-yl)pyrimidin-2-ylamino)-4-methoxy-2-morpholinophenyl)acrylamide]: the IC50 (on EGFR mutant T790M; in assay [1]; at EGFR mutant Del19/T790M; at EGFR mutant L858R/T790M; at EGFR mutant L858R) was less than 20 nM throughout.
Regarding `C=CC(=O)Nc1cc(Nc2nccc(-n3cc(CN(C)C)c(-c4cc(C)ccc4C)n3)n2)c(OC)cc1N1CCOCC1` [Compound 89, N-(5-(4-(4-((dimethylamino)methyl)-3-(2,5-dimethylphenyl)-1H-pyrazol-1-yl)pyrimidin-2-ylamino)-4-methoxy-2-morpholinophenyl)acrylamide], the IC50 against EGFR mutant T790M was 20 to 200 nM; in assay [1], 20 to 200 nM; on EGFR mutant Del19/T790M, less than 20 nM; at EGFR mutant L858R/T790M it was less than 20 nM; at EGFR mutant L858R, 20 to 200 nM.
Take `C=CC(=O)Nc1cc(Nc2nccc(-n3cc(CN4CCC4)c(C(C)C)n3)n2)c(OC)cc1N(C)CCOC` [Compound 113, N-(5-(4-(4-(azetidin-1-ylmethyl)-3-isopropyl-1H-pyrazol-1-yl)pyrimidin-2-ylamino)-4-methoxy-2-((2-methoxyethyl)(methyl)amino)phenyl)acrylamide]: the IC50 (on EGFR mutant T790M; in assay [1]; at EGFR mutant Del19/T790M; at EGFR mutant L858R/T790M; at EGFR mutant L858R) was less than 20 nM in each case.
With “N-(5-(4-(4-(azetidin-1-ylmethyl)-3-methyl-1H-pyrazol-1-yl)pyrimidin-2-ylamino)-4-methoxy-2-(1H-pyrazol-1-yl)phenyl)acrylamide [Compound 53]”, the IC50 was 20 to 200 nM against EGFR mutant T790M; greater than 1000 nM on SYK; 20 to 200 nM on EGFR mutant L858R/T790M (biochemical potency, 1 mM ATP); 20 to 200 nM on EGFR mutant L858R (biochemical potency, 1 mM ATP).
On to `C=CC(=O)Nc1cc(Nc2ncc(C)c(-n3cc(CN4CCC4)cn3)n2)c(OC(C)C)cc1N1CCOCC1` [Compound 63, N-(5-(4-(4-(azetidin-1-ylmethyl)-1H-pyrazol-1-yl)-5-methylpyrimidin-2-ylamino)-4-isopropoxy-2-morpholinophenyl)acrylamide], for which the IC50 at EGFR mutant T790M is 20 to 200 nM; at SYK it was greater than 1000 nM; in assay [1], 20 to 200 nM; on EGFR mutant L858R/T790M it was 20 to 200 nM; on EGFR mutant L858R it was 201 to 1000 nM.
Take `C=CC(=O)Nc1cc(Nc2ncc(C)c(-n3cc(CN4CCC4)c(-c4ccccc4)n3)n2)c(OC)cc1N1CCOCC1` [Compound 121, N-(5-(4-(4-(azetidin-1-ylmethyl)-3-phenyl-1H-pyrazol-1-yl)-5-methylpyrimidin-2-ylamino)-4-methoxy-2-morpholinophenyl)acrylamide]: the IC50 (at EGFR mutant T790M; in assay [1]; at EGFR mutant Del19/T790M; at EGFR mutant L858R/T790M; at EGFR mutant L858R) was less than 20 nM each time.
In the case of `C=CC(=O)Nc1cc(Nc2nccc(-n3cc(CN(C)C)c(-c4ccncc4)n3)n2)c(OC)cc1N1CCOCC1` [Compound 136, N-(5-(4-(4-((dimethylamino)methyl)-3-(pyridin-4-yl)-1H-pyrazol-1-yl)pyrimidin-2-ylamino)-4-methoxy-2-morpholinophenyl)acrylamide], the IC50 (at EGFR mutant T790M; in assay [1]; at EGFR mutant Del19/T790M; at EGFR mutant L858R/T790M; at EGFR mutant L858R) was less than 20 nM in each case.
Regarding `C=CC(=O)Nc1cc(Nc2nccc(-n3cc(CN(C)CC)c(C4CC4)n3)n2)c(OC)cc1N1CCN(C(C)=O)CC1` [Compound 137, N-(2-(4-acetylpiperazin-1-yl)-5-(4-(3-cyclopropyl-4-((ethyl(methyl)amino)methyl)-1H-pyrazol-1-yl)pyrimidin-2-ylamino)-4-methoxyphenyl)acrylamide], the IC50 (at EGFR mutant T790M; in assay [1]; on EGFR mutant Del19/T790M; on EGFR mutant L858R/T790M; at EGFR mutant L858R) was less than 20 nM in each case.
Take `C=CC(=O)Nc1cc(Nc2ncc(F)c(-n3cc(CN4C[C@H](O)[C@H](OC)C4)c(C)n3)n2)c(OC)cc1N1CCOCC1` [Compound 61, N-(5-(5-fluoro-4-(4-(((3S,4R)-3-hydroxy-4-methoxypyrrolidin-1-yl)methyl)-3-methyl-1H-pyrazol-1-yl)pyrimidin-2-ylamino)-4-methoxy-2-morpholinophenyl)acrylamide]: the IC50 against EGFR mutant T790M was less than 20 nM; against SYK, greater than 1000 nM; in assay [1], 20 to 200 nM; at EGFR mutant L858R/T790M it was 20 to 200 nM; on EGFR mutant L858R, 20 to 200 nM.
Regarding `C=CC(=O)Nc1cc(Nc2nccc(-n3ccc(-c4ccccc4)n3)n2)c(OC)cc1N1CCN(C)CC1` [Compound 85, N-(4-methoxy-2-(4-methylpiperazin-1-yl)-5-(4-(3-phenyl-1H-pyrazol-1-yl)pyrimidin-2-ylamino)phenyl)acrylamide], the IC50 against EGFR mutant T790M is less than 20 nM; in assay [1], less than 20 nM; at EGFR mutant Del19/T790M, less than 20 nM; on EGFR mutant L858R/T790M, 20 to 200 nM; at EGFR mutant L858R it was 20 to 200 nM.
With `C=CC(=O)Nc1cc(Nc2nccc(-n3cc(CN(C)CC)c(C)n3)n2)c(OC)cc1N1CCOCC1` [Compound 145, N-(5-(4-(4-((ethyl(methyl)amino)methyl)-3-methyl-1H-pyrazol-1-yl)pyrimidin-2-ylamino)-4-methoxy-2-morpholinophenyl)acrylamide], the IC50 at EGFR mutant T790M was 20 to 200 nM; in assay [1] it was less than 20 nM; on EGFR mutant Del19/T790M it was less than 20 nM; at EGFR mutant L858R/T790M, less than 20 nM; at EGFR mutant L858R, less than 20 nM.
Consider `C=CC(=O)Nc1cc(Nc2nccc(-n3cc(CN(C)C)c(C(C)C)n3)n2)c(OC)cc1N1CCCC1` [Compound 116, N-(5-(4-(4-((dimethylamino)methyl)-3-isopropyl-1H-pyrazol-1-yl)pyrimidin-2-ylamino)-4-methoxy-2-(pyrrolidin-1-yl)phenyl)acrylamide], for which the IC50 against EGFR mutant T790M is less than 20 nM; against SYK it was greater than 1000 nM.
In the case of `C=CC(=O)Nc1cc(Nc2nccc(-n3cc(CO)c(C)n3)n2)c(OC)cc1N1CCOCC1` [Compound 66, N-(5-(4-(4-(hydroxymethyl)-3-methyl-1H-pyrazol-1-yl)pyrimidin-2-ylamino)-4-methoxy-2-morpholinophenyl)acrylamide], the IC50 was 20 to 200 nM at EGFR mutant T790M; greater than 1000 nM against SYK; less than 20 nM in assay [1]; less than 20 nM at EGFR mutant L858R/T790M; 20 to 200 nM on EGFR mutant L858R.
Turning to `C=CC(=O)Nc1cc(Nc2nccc(-n3nc(C)c(CN4CCC4)c3C)n2)c(OC)cc1N1CCOCC1` [Compound 70, N-(5-(4-(4-(azetidin-1-ylmethyl)-3,5-dimethyl-1H-pyrazol-1-yl)pyrimidin-2-ylamino)-4-methoxy-2-morpholinophenyl)acrylamide], the IC50 (in assay [1]; at EGFR mutant Del19/T790M; at EGFR mutant L858R/T790M; on EGFR mutant L858R) was 20 to 200 nM throughout.
For the compound `C=CC(=O)Nc1cc(Nc2nccc(-n3cc(CN(C)C)c(C(C)(C)C)n3)n2)c(OC)cc1N(C)C1COC1` [Compound 102, N-(5-(4-(3-tert-butyl-4-((dimethylamino)methyl)-1H-pyrazol-1-yl)pyrimidin-2-ylamino)-4-methoxy-2-(methyl(oxetan-3-yl)amino)phenyl)acrylamide], the IC50 at EGFR mutant T790M is less than 20 nM; at SYK, greater than 1000 nM; in assay [1], less than 20 nM; at EGFR mutant L858R/T790M it was less than 20 nM; on EGFR mutant L858R, less than 20 nM.

The values are drawn from patent publication USRE50528E1, “Compounds and compositions for modulating EGFR mutant kinase activities” (Yuhan Corporation, priority 2014, dated 2025).
